According to patent US9250240B2, “Immunoreactive Ehrlichia p120/p140 epitopes and uses thereof” (Research Development Foundation, priority 2009, dated 2016):
No end group written: not given here.

Assays:
[1] = tested on: antibodies in anti-E. canis dog sera; assay: ELISA of overlapping synthetic peptides spanning the E. canis p140 repeat unit; format: binding; settings: four anti-E. canis sera from naturally infected dogs (nos. 2160, 6, 10, 18)
Procedure: ELISA. Enzyme-linked immunosorbent assay (ELISA) plates (MaxiSorp; Nunc, Roskilde, Denmark) were coated (0.5 μg/well; 50 μl) with recombinant proteins or synthetic peptides suspended in phosphate-buffered saline (pH 7.4). Proteins and peptides were absorbed for 1 h at room temperature with gentle agitation, and subsequently washed thrice with 200 μl Tris-buffered saline containing 0.2% Tween 20 (TBST). Plates were blocked with 100 μl 10% equine serum (Sigma) in TBST for 1 h at room temperature with agitation, and washed. Convalescent dog or human sera diluted (1:100 or 1:200, respectively) in 10% equine serum-TBST were added to each well (50 μl) and incubated at room temperature for 1 h with gentle agitation. […] The plates were incubated in the dark for 30 min with agitation, and color development was determined on a microplate reader (VersaMax; Molecular Devices, Sunnyvale, Calif.) at A650 and data analyzed by SoftmaxPro v4.0 (Molecular Devices). Optical density (OD) readings represent the mean OD for three wells (±standard deviations) after subtracting the OD value of the buffer-only wells. A reading >0.2 OD unit above the negative control absorbance was considered positive for all samples. In addition, a reading 0.2-0.5 OD unit above the control absorbance was considered a weak positive, and a reading >0.5 OD unit above the control absorbance was considered a strong positive. […]

[2] = tested on: E. chaffeensis antibodies in HME patient sera; assay: ELISA evaluation of E. chaffeensis immunodeterminants for serologic diagnosis of HME; format: binding, human
Procedure: ELISA. For epitope mapping, an ELISA was performed as previously described (Luo et al., 2009). For serologic diagnosis evaluation, an Immobilizer amino plate (Nunc, Roskilde, Denmark) was used to increase the signal-to-noise ratio. Immobilizer amino plates were coated with synthetic peptides or recombinant proteins (0.5 μg/well; 50 μl) suspended in 100 mM sodium carbonate buffer (pH 9.6) and incubated with gentle agitation at room temperature for 1 to 2 h or overnight at 4° C. The wells were washed four times with 300 μl phosphatebuffered saline containing 0.05% (vol/vol) Tween 20 (PBST; pH 7.2) by a plate washer (SkanWasher 400; Molecular Devices, Sunnyvale, Calif.). Dog or human sera diluted (1:100 or 1:200, respectively) in PBST were added to each well (50 μl) and incubated at room temperature for 1 h. The plates were washed again, and 50 μl alkaline phosphatase-labeled goat anti-dog or -human IgG(H+L) secondary antibody (Kirkegaard & Perry Laboratories, Gaithersburg, Md.) diluted (1:5,000) in PBST was added and incubated at room temperature for 1 h. After the addition of substrate (BluePhos; Kirkegaard & Perry Laboratories), plates were incubated in the dark for 30 min, color development was determined on a microplate reader (VersaMax; Molecular Devices, Sunnyvale, Calif.) at A650, and data were analyzed by SoftMax Pro version 4.0 (Molecular Devices). Optical density (OD) readings represent the mean OD value for three wells (±standard deviations) after subtracting the OD value of the negative control wells. All sera negative for E. chaffeensis by IFA had readings of <0.05 OD unit; therefore, a positive sample threshold was set at >0.1 OD unit. In addition, a reading of 0.1 to 0.5 OD unit was considered a weak positive, and a reading of >0.5 OD unit was considered a strong positive. IFA. The anti-E. chaffeensis antibody status in HME patient sera was determined as described previously (McBride et al., 2003). […] The statistical differences between experimental groups were assessed with the two-tailed Student t test, and significance was indicated by a P value of <0.05. […]

[3] = 31 HME patient sera (IFA titers 64 to 8192), positive = 0.1 OD unit above negative control

Substance	Immunoreactivity by ELISA [1]	% of patients with detectable antibodies [2, 3]	No. of patients with detectable antibodies [2, 3]	specificity for diagnosing HME ([2]; as worded in the summary)
p140R-3: 11-mer overlapping synthetic peptide of the E. canis p140 repeat unit (SKEESTPEVKA)	virtually nonreactive	–	–	–
TRP32 peptides: equal (w:w) mixture of TRP32-R3 and TRP32-R4 peptides (chain 1 SDLHGSFSVELFDPFKEAVQLGNDLQQSSD; chain 2 SDSHEPSHLELPSLSEEVIQLESDLQQSSN; not fully specified)	–	87.1%	27	87.1%
